# Test results reported in ChEMBL document CHEMBL1139995, “SAR of the arylpiperazine moiety of obeline somatostatin sst1 receptor antagonists” (Bioorg Med Chem Lett, 2007).
# Key:
# [1] = molecular target: Somatostatin receptor type 2 (Rattus norvegicus, UniProt P30680); assay: Displacement of [125I]SRIF14 from rat sst2 receptor from rat brain cortex membrane
# [2] = molecular target: Somatostatin receptor type 1 (Rattus norvegicus, UniProt P28646); assay: Displacement of [125I]SRIF14 from rat sst1 receptor from rat brain cortex membrane
# Chain of Somatostatin receptor type 1 (P28646 whole entry): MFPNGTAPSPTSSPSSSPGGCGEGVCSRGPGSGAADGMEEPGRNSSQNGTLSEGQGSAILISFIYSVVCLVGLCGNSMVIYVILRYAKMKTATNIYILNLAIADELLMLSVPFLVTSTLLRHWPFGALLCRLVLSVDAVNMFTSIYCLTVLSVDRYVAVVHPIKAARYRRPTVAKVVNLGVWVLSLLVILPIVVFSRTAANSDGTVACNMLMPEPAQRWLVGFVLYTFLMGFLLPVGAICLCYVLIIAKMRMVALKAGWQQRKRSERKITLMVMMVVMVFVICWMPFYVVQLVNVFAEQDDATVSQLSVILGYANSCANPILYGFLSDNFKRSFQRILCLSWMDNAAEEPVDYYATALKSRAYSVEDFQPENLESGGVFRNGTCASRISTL
# [3] = organism: Rattus norvegicus; assay: Selectivity for rat sst1 receptor over rat sst2 receptor
# [4] = Ratio of drug level in brain to plasma in mouse at 10 mg/kg, po after 1 hr; type: ADME, organism-based; set-up: dose 10 mg/kg, route oral; settings: brain and plasma, read-out: BPR
# [5] = Oral bioavailability in rat at 10 mg/kg; type: ADME, organism-based; settings: in vivo
# [6] = Clearance in rat at 10 mg/kg, po; type: ADME, organism-based; set-up: dose 10 mg/kg, route oral; settings: in vivo
# [7] = tested on: Rattus norvegicus; assay: Volume of distribution at steady state in rat at 10 mg/kg, po; type: ADME, organism-based; set-up: dose 10 mg/kg, route oral; settings: in vivo
# [8] = Ratio of drug level in brain to plasma in rat at 10 to 100 mg/kg, po after 90 mins; type: ADME, organism-based; set-up: dose 10-100 mg/kg, route oral; settings: brain and plasma, read-out: BPR
# Chain of Somatostatin receptor type 2 (P30680 whole entry): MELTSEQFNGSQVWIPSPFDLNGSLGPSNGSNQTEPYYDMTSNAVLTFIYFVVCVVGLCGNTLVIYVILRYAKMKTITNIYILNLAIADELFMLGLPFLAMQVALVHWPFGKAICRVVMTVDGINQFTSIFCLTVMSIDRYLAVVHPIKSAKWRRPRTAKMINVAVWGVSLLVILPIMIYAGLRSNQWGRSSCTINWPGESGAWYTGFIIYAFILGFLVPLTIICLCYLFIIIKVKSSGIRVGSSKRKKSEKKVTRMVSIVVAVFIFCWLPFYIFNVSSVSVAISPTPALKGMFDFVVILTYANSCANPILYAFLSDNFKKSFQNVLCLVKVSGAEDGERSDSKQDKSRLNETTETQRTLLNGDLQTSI
Compound,Kd [1] [nM],Kd [2] [nM],also measured
COc1cccc2c1C[C@H]1C[C@@H](C(=O)N3CCN(c4ccccc4F)CC3)CN(C)[C@@H]1C2,18600,17.8,
COc1cccc2c1C[C@H]1C[C@@H](C(=O)N3CCc4c([nH]c5ccccc45)C3)CN(C)[C@@H]1C2,6170,70.8,
COc1cccc2c1C[C@H]1C[C@@H](C(=O)N3CCN(c4ccc5nccn5n4)CC3)CN(C)[C@@H]1C2,20900,87.1,
COc1cccc2c1C[C@H]1C[C@@H](C(=O)N3CCN(c4cccc(F)c4)CC3)CN(C)[C@@H]1C2,21400,3.31,
COc1cccc2c1C[C@H]1C[C@@H](C(=O)N3CCN(c4ccc5nccnc5n4)CC3)CN(C)[C@@H]1C2,14100,5.75,
COc1cccc2c1C[C@H]1C[C@@H](C(=O)N3CCN(c4cccc5nsnc45)CC3)CN(C)[C@@H]1C2,10000,2.75,
COc1cccc2c1C[C@H]1C[C@@H](C(=O)N3CCN(c4ccc5nonc5c4)CC3)CN(C)[C@@H]1C2,3470,1.7,
COc1cccc2c1C[C@H]1C[C@@H](C(=O)N3CCN(c4ccc(S(C)(=O)=O)cc4)CC3)CN(C)[C@@H]1C2,8710,631,
COc1cccc2c1C[C@H]1C[C@@H](C(=O)N3CCN(c4cc5nccnc5cn4)CC3)CN(C)[C@@H]1C2,7080,355,
COc1cccc2c1C[C@H]1C[C@@H](C(=O)N3CCN(c4ccc(C(F)(F)F)cc4[N+](=O)[O-])CC3)CN(C)[C@@H]1C2,4900,110,
COc1cccc2c1C[C@H]1C[C@@H](C(=O)N3CCN(c4cc(C)nc5ccccc45)CC3)CN(C)[C@@H]1C2,5250,692,
COc1cccc2c1C[C@H]1C[C@@H](C(=O)N3CCN(c4ccc5nsnc5n4)CC3)CN(C)[C@@H]1C2,5750,1.23,Selectivity ratio [3]: > 4600; Kp at 1 h [4]: 1.8
COc1cccc2c1C[C@H]1C[C@@H](C(=O)N3CCN(c4ccc(S(N)(=O)=O)cc4)CC3)CN(C)[C@@H]1C2,9120,589,
COc1cccc2c1C[C@H]1C[C@@H](C(=O)N3CCN(c4ccc(C(F)(F)F)cc4)CC3)CN(C)[C@@H]1C2,5130,275,
COc1cccc2c1C[C@H]1C[C@@H](C(=O)N3CC=C(c4ncccn4)CC3)CN(C)[C@@H]1C2,2400,490,
COc1cccc2c1C[C@H]1C[C@@H](C(=O)N3CCN(c4ccc(O)cc4)CC3)CN(C)[C@@H]1C2,24500,631,
COc1cccc2c1C[C@H]1C[C@@H](C(=O)N3CCN(c4ccc(C#N)cc4)CC3)CN(C)[C@@H]1C2,10000,8.13,
COc1cccc2c1C[C@H]1C[C@@H](C(=O)N3CCN(c4ccc([N+](=O)[O-])cc4)CC3)CN(C)[C@@H]1C2 [OBELIN],7760,0.708,bioavailability [5]: 35%; CL/F [6]: 5 mL/min; Selectivity ratio [3]: > 10000; Vdss [7]: 3 L/kg; Kp at 1.5 h [8]: 10
COc1cccc2c1C[C@H]1C[C@@H](C(=O)N3CCN(c4ccc(F)cc4)CC3)CN(C)[C@@H]1C2,26300,3.39,
COc1cccc2c1C[C@H]1C[C@@H](C(=O)N3CC=C(c4ccc(Cl)cc4)CC3)CN(C)[C@@H]1C2,2510,81.3,
COc1cccc2c1C[C@H]1C[C@@H](C(=O)N3CCN(c4ccc(C(C)=O)cc4)CC3)CN(C)[C@@H]1C2,8710,151,
COC(=O)c1ccc(N2CCN(C(=O)[C@@H]3C[C@@H]4Cc5c(cccc5OC)C[C@H]4N(C)C3)CC2)cc1,14800,162,
COc1cccc2c1C[C@H]1C[C@@H](C(=O)N3CCN(c4cccc(=O)[nH]4)CC3)CN(C)[C@@H]1C2,11700,7.59,
COc1cccc2c1C[C@H]1C[C@@H](C(=O)N3CCN(c4ccc(C#N)cn4)CC3)CN(C)[C@@H]1C2,10200,3.55,
COc1cccc2c1C[C@H]1C[C@@H](C(=O)N3CCN(Cc4ccccc4)CC3)CN(C)[C@@H]1C2,9120,457,
O=[As][As+](=O)[O-] (stereo not given) [ARSENIC TRIOXIDE],25100,52.5,
COc1cccc2c1C[C@H]1C[C@@H](C(=O)N3CCN(c4cccc(F)c4C#N)CC3)CN(C)[C@@H]1C2,16600,2.82,
COc1cccc2c1C[C@H]1C[C@@H](C(=O)N3CCN(c4ccccc4C#N)CC3)CN(C)[C@@H]1C2,7410,2,

Compound,Kd [1] [nM],Kd [2] [nM],also measured
COc1cccc2c1C[C@H]1C[C@@H](C(=O)N3CCN(c4cc5ccccc5cn4)CC3)CN(C)[C@@H]1C2,5500,288,
COc1cccc2c1C[C@H]1C[C@@H](C(=O)N3CCN(c4ccc(C(=O)O)cc4)CC3)CN(C)[C@@H]1C2,251000,81300,
COc1cccc2c1C[C@H]1C[C@@H](C(=O)N3CCN(c4ccc(F)c(F)c4)CC3)CN(C)[C@@H]1C2,16600,0.741,Selectivity ratio [3]: > 22000; Kp at 1 h [4]: 7.5
COc1cccc2c1C[C@H]1C[C@@H](C(=O)N3CCCN(c4ccccn4)CC3)CN(C)[C@@H]1C2,34700,209,
COc1cccc2c1C[C@H]1C[C@@H](C(=O)N3CCN(c4cccc5ccc(C#N)cc45)CC3)CN(C)[C@@H]1C2,5250,8.71,
CCN(CC)C(=O)c1ccc(N2CCN(C(=O)[C@@H]3C[C@@H]4Cc5c(cccc5OC)C[C@H]4N(C)C3)CC2)cc1,20000,1700,
COc1cccc2c1C[C@H]1C[C@@H](C(=O)N3CCN(c4ccc(C(F)(F)F)cn4)CC3)CN(C)[C@@H]1C2,20000,105,
COc1cccc2c1C[C@H]1C[C@@H](C(=O)N3CCN(c4cccc5nonc45)CC3)CN(C)[C@@H]1C2,3630,3.63,
COc1cccc2c1C[C@H]1C[C@@H](C(=O)N3CC=C(c4ccccn4)CC3)CN(C)[C@@H]1C2,2340,30.2,
COc1cccc2c1C[C@H]1C[C@@H](C(=O)N3CCN(c4ccc(C(N)=O)cc4)CC3)CN(C)[C@@H]1C2,16600,1510,
COc1cccc2c1C[C@H]1C[C@@H](C(=O)N3CCCN(c4ccc([N+](=O)[O-])cc4)CC3)CN(C)[C@@H]1C2,22400,263,
COc1cccc2c1C[C@H]1C[C@@H](C(=O)N3CCN(c4ccccc4[N+](=O)[O-])CC3)CN(C)[C@@H]1C2,11000,1.29,
COc1cccc2c1C[C@H]1C[C@@H](C(=O)N3CCN(c4cccc(OCc5ccccc5)n4)CC3)CN(C)[C@@H]1C2,6610,105,
COc1cccc2c1C[C@H]1C[C@@H](C(=O)N3CCN(c4cccc5ccccc45)CC3)CN(C)[C@@H]1C2,5500,87.1,
COc1cccc2c1C[C@H]1C[C@@H](C(=O)N3CCN(c4cccc(C(F)(F)F)c4)CC3)CN(C)[C@@H]1C2,13200,23.4,
COc1cccc2c1C[C@H]1C[C@@H](C(=O)N3CCNCC3)CN(C)[C@@H]1C2,43700,10500,
COc1cccc2c1C[C@H]1C[C@@H](C(=O)N3CCN(c4ncccn4)CC3)CN(C)[C@@H]1C2,27500,468,
COc1cccc2c1C[C@H]1C[C@@H](C(=O)N3CCN(c4ccc5ccccc5n4)CC3)CN(C)[C@@H]1C2,2090,27.5,
COc1cccc2c1C[C@H]1C[C@@H](C(=O)N3CCN(c4ccc5nsnc5c4)CC3)CN(C)[C@@H]1C2,4270,10.7,Kp at 1 h [4]: 4.8
COc1cccc2c1C[C@H]1C[C@@H](C(=O)N3CCN(c4ccc([N+](=O)[O-])cc4S(C)(=O)=O)CC3)CN(C)[C@@H]1C2,5250,1.74,
COc1cccc2c1C[C@H]1C[C@@H](C(=O)N3CCN(c4ccccn4)CC3)CN(C)[C@@H]1C2,10200,17.4,
COc1cccc2c1C[C@H]1C[C@@H](C(=O)N3CCN(c4cccc(=O)n4C)CC3)CN(C)[C@@H]1C2,11000,1.82,
COc1cccc2c1C[C@H]1C[C@@H](C(=O)N3CCN(c4cccc([N+](=O)[O-])c4)CC3)CN(C)[C@@H]1C2,6760,1.32,
COc1cccc2c1C[C@H]1C[C@@H](C(=O)N3CCN(c4ccncc4)CC3)CN(C)[C@@H]1C2,17800,1860,
COc1cccc2c1C[C@H]1C[C@@H](C(=O)N3CCC(n4c(=O)[nH]c5ccccc54)CC3)CN(C)[C@@H]1C2,2040,490,
COc1cccc2c1C[C@H]1C[C@@H](C(=O)N3CCN(c4ncccc4OS(=O)(=O)C(F)(F)F)CC3)CN(C)[C@@H]1C2,10500,562,
COc1cccc2c1C[C@H]1C[C@@H](C(=O)N3CCN(c4ccc([N+](=O)[O-])cc4C#N)CC3)CN(C)[C@@H]1C2,4370,3.24,
